Like-named read-outs stand apart in the source and are kept apart here.

For this experiment, the system named is Prostate-specific antigen (PSA) production in LNCaP cells. Kind of experiment: PSA Assay (inhibition of PSA production in prostate cancer cells, ELISA). Format: cell-based, human. The method, then: PSA Assay (Inhibition Test of the Compound of the Present Invention on Prostate-Specific Antigen (PSA) Production in Various Prostate Cancer Cells).
Androgen dependent LNCaP cells were purchased from the American Type Culture Collection (ATCC, Manassas, Va.). These cells were grown in RPMI 1640 medium supplemented with 10% fetal bovine serum (FBS), 100 U/mL penicillin, 100 μg/mL streptomycin, and 0.25 μg/mL amphotericin B. The cells were maintained at 37° C. and 5% CO2. LNCaP cells between passage 20 and 35 were used for experiments. LNCaP is a hormone sensitive cell line. For the PSA assay, human prostate cancer cells LNCaP were seeded in a 96-well plate at a concentration of 5000 cells/100 μl/well. On the following day, Methyltrienolone (R1881, AR agonist) (final concentration 1 ng/ml), test compounds or bicalutamide (Casodex®, AstraZeneca) (final concentration 0.005 to 20 μM) were added. Three days after the addition, the concentration of PSA in the supernatant of the culture solution was measured by ELISA. ELISAs for human PSA in culture medium were performed using the ultra-sensitive assay procedure and reagents in the Active™ PSA assay kit (Diagnostic Systems Laboratories Inc., Webster, Tex.). Culture medium and standards (200 μl/well) were incubated in antibody-coated plates for 2 h at room temperature on a Titer plate shaker at 500-600 rpm. Wells were then washed five times. The HRP conjugate was diluted 1:20 with assay buffer, and 100 μl was added to all wells. The plates were incubated for 30 min at room temperature on the shaker and washed as before, and 100 μl TMB (3,3′,5,5′-tetramethylbenzidine, 0.4 g/l) was added. The plates were incubated for 10 min on the shaker, and the reaction was terminated with 100 μl stop solution. The plates were read using a plate reader at 450 nm with a 650 nm reference filter. PSA levels were normalized for differences in growth of LNCaP cells following various treatments as determined by the MTS assay. IC50 of PSA was calculated based on a seven point assay (concentrations of tested compound) and expressed as micromolar (uM).

The mark [1] stands for this setting: Homo sapiens, LNCaP, 72 h, read-out: LNCAP IC50 (uM), inhibition of PSA production, LNCaP cells, R1881 1 ng/ml, three days, seven point assay.

As to `CNC(=O)CCCc1ccc(N2C(=S)N(c3ccc(C#N)c(C(F)(F)F)c3F)C(=O)C2(C)C)cc1F` [Example 44, 4-{4-[3-(4-Cyano-2-fluoro-3-trifluoromethyl-phenyl)-5,5-dimethyl-4-oxo-2-thioxo-imidazolidin-1-yl]-2-fluoro-phenyl}-N-methyl-butyramide], under setting [1], the IC50 stood at 0.11 µM.

Turning to `CNC(=O)CCCc1ccc(N2C(=S)N(c3cc(C(F)(F)F)c(C#N)cc3F)C(=O)C2(C)C)cc1F` [Example 45, 4-(4-(3-(4-cyano-2-fluoro-5-(trifluoromethyl)phenyl)-5,5-dimethyl-4-oxo-2-thioxoimidazolidin-1-yl)-2-fluorophenyl)-N-methylbutanamide], the IC50 under setting [1] was 2.05 µM.

For `CNC(=O)CCCc1ccc(N2C(=S)N(c3ccc(C#N)c(C(F)(F)F)c3F)C(=O)C23CCC3)cc1F` [Example 46, 4-{4-[7-(4-Cyano-2-fluoro-3-trifluoromethyl-phenyl)-8-oxo-6-thioxo-5,7-diaza-spiro[3.4]oct-5-yl]-2-fluoro-phenyl}-N-methyl-butyramide], the IC50 under setting [1] is 0.63 µM.

As for `CC1(C)C(=O)N(c2ccc(C#N)c(C(F)(F)F)c2F)C(=S)N1c1ccc(CCCC(=O)N2CC(O)C2)c(F)c1` [Example 47, 3-Fluoro-4-(3-{3-fluoro-4-[4-(3-hydroxy-azetidin-1-yl)-4-oxo-butyl]-phenyl}-4,4-dimethyl-5-oxo-2-thioxo-imidazolidin-1-yl)-2-trifluoromethyl-benzonitrile], the IC50 under setting [1] came out at 0.48 µM.

In the case of `CC1(C)C(=O)N(c2ccc(C#N)c(C(F)(F)F)c2)C(=S)N1c1ccc(CCCC(=O)N2CC(O)C2)c(F)c1` [Example 48, 4-(3-{3-Fluoro-4-[4-(3-hydroxy-azetidin-1-yl)-4-oxo-butyl]-phenyl}-4,4-dimethyl-5-oxo-2-thioxo-imidazolidin-1-yl)-2-trifluoromethyl-benzonitrile], the IC50 under setting [1] was found to be 1.04 µM.

Consider `CC1(C)C(=O)N(c2ccc(C#N)c(C(F)(F)F)c2F)C(=S)N1c1ccc(CCCc2ncco2)c(F)c1` [Example 49, 3-Fluoro-4-{3-[3-fluoro-4-(3-oxazol-2-yl-propyl)-phenyl]-4,4-dimethyl-5-oxo-2-thioxo-imidazolidin-1-yl}-2-trifluoromethyl-benzonitrile], for which the IC50 under setting [1] is 0.49 µM.

For the compound `CC1(C)C(=O)N(c2ccc(C#N)c(C(F)(F)F)c2F)C(=S)N1c1ccc(CCCC(=O)N2CCC(O)CC2)c(F)c1` [Example 51, 3-Fluoro-4-(3-{3-fluoro-4-[4-(4-hydroxy-piperidin-1-yl)-4-oxo-butyl]-phenyl}-4,4-dimethyl-5-oxo-2-thioxo-imidazolidin-1-yl)-2-trifluoromethyl-benzonitrile], under setting [1], the IC50 came out at 0.39 µM.

On to `CN1CCN(C(=O)CCCc2ccc(N3C(=S)N(c4ccc(C#N)c(C(F)(F)F)c4F)C(=O)C3(C)C)cc2F)CC1` [Example 53, 3-Fluoro-4-(3-{3-fluoro-4-[4-(4-methyl-piperazin-1-yl)-4-oxo-butyl]-phenyl}-4,4-dimethyl-5-oxo-2-thioxo-imidazolidin-1-yl)-2-trifluoromethyl-benzonitrile], for which, under setting [1], the IC50 stood at 0.41 µM.

Consider `CC1(C)C(=O)N(c2ccc(C#N)c(C(F)(F)F)c2F)C(=S)N1c1ccc(CCCC(=O)N2CCOCC2)nc1` [Example 55, 4-{4,4-Dimethyl-3-[6-(4-morpholin-4-yl-4-oxo-butyl)-pyridin-3-yl]-5-oxo-2-thioxo-imidazolidin-1-yl}-3-fluoro-2-trifluoromethyl-benzonitrile], for which the IC50 under setting [1] was found to be 1.2 µM.

`CC1(C)C(=O)N(c2ccc(C#N)c(C(F)(F)F)c2)C(=S)N1c1ccc(CCCC(=O)N2CCOCC2)nc1` [Example 56, 4-{4,4-Dimethyl-3-[6-(4-morpholin-4-yl-4-oxo-butyl)-pyridin-3-yl]-5-oxo-2-thioxo-imidazolidin-1-yl}-2-trifluoromethyl-benzonitrile]: the IC50 under setting [1] came to 3.64 µM.

Take `CNC(=O)CCCc1ccc(N2C(=S)N(c3ccc(C#N)c(C(F)(F)F)c3F)C(=O)C2(C)C)cn1` [Example 57, 4-{5-[3-(4-Cyano-2-fluoro-3-trifluoromethyl-phenyl)-5,5-dimethyl-4-oxo-2-thioxo-imidazolidin-1-yl]-pyridin-2-yl}-N-methyl-butyramide]: the IC50 under setting [1] amounted to 1.91 µM.

On to `CC1(C)C(=O)N(c2ccc(C#N)c(C(F)(F)F)c2F)C(=S)N1c1ccc(CCCC(=O)N2CCOCC2)c(F)c1` [Example 58, 3-fluoro-4-(3-(3-fluoro-4-(4-morpholino-4-oxobutyl)phenyl)-4,4-dimethyl-5-oxo-2-thioxoimidazolidin-1-yl)-2-(trifluoromethyl)benzonitrile], for which the IC50 under setting [1] stood at 0.53 µM.

Consider `CC1(C)C(=O)N(c2ccc(C#N)c(Cl)c2F)C(=S)N1c1ccc(CCCC#N)cc1` [Example 59, 2-chloro-4-(3-(4-(3-cyanopropyl)phenyl)-4,4-dimethyl-5-oxo-2-thioxoimidazolidin-1-yl)-3-fluorobenzonitrile], for which the IC50 (read-out: LNCAP IC50, inhibition of PSA production, LNCaP cells, R1881 1 ng/ml, three days, seven point assay) came out at 0.48 µM.

As to `CC1(C)C(=O)N(c2cc(C(F)(F)F)c(C#N)cc2F)C(=S)N1c1ccc(CCCc2ncc[nH]2)c(F)c1` [Example 60, 4-(3-(4-(3-(1H-imidazol-2-yl)propyl)-3-fluorophenyl)-4,4-dimethyl-5-oxo-2-thioxoimidazolidin-1-yl)-5-fluoro-2-(trifluoromethyl)benzonitrile], the IC50 under setting [1] is 3.3 µM.

With `N#Cc1ccc(N2C(=O)C3(CCC3)N(c3ccc(CCCC(=O)N4CC(O)C4)c(F)c3)C2=S)c(F)c1C(F)(F)F` [Example 61, 3-Fluoro-4-(5-{3-fluoro-4-[4-(3-hydroxy-azetidin-1-yl)-4-oxo-butyl]-phenyl}-8-oxo-6-thioxo-5,7-diaza-spiro[3.4]oct-7-yl)-2-trifluoromethyl-benzonitrile], the IC50 under setting [1] is 0.19 µM.

`CC1(C)C(=O)N(c2ccc(C#N)c(C(F)(F)F)c2F)C(=S)N1c1ccc(CCCc2ncco2)nc1` [Example 63, 4-{4,4-Dimethyl-3-[6-(3-oxazol-2-yl-propyl)-pyridin-3-yl]-5-oxo-2-thioxo-imidazolidin-1-yl}-3-fluoro-2-trifluoromethyl-benzonitrile]: the IC50 under setting [1] came out at 0.1 µM.

As to `CC1(C)C(=O)N(c2ccc(C#N)c(C(F)(F)F)c2)C(=S)N1c1ccc(CCCc2ncco2)nc1` [Example 64, 4-{4,4-Dimethyl-3-[6-(3-oxazol-2-yl-propyl)-pyridin-3-yl]-5-oxo-2-thioxo-imidazolidin-1-yl}-2-trifluoromethyl-benzonitrile], the IC50 under setting [1] worked out at 0.45 µM.

On to `N#Cc1ccc(N2C(=O)C3(CCC3)N(c3ccc(CCCc4ncco4)nc3)C2=S)c(F)c1C(F)(F)F` [Example 65, 3-Fluoro-4-{5-[6-(3-oxazol-2-yl-propyl)-pyridin-3-yl]-8-oxo-6-thioxo-5,7-diaza-spiro[3.4]oct-7-yl}-2-trifluoromethyl-benzonitrile], for which, under setting [1], the IC50 worked out at 0.6 µM.

Take `CC1(C)C(=O)N(c2ccc(C#N)c(C(F)(F)F)c2F)C(=S)N1c1ccc(CCCc2ncc[nH]2)nc1` [Example 66, 4-(3-(6-(3-(1H-imidazol-2-yl)propyl)pyridin-3-yl)-4,4-dimethyl-5-oxo-2-thioxoimidazolidin-1-yl)-3-fluoro-2-(trifluoromethyl)benzonitrile]: the IC50 under setting [1] was determined as 1.27 µM.

`CC1(C)C(=O)N(c2ccc(C#N)c(C(F)(F)F)c2F)C(=S)N1c1ccc(CCCc2nccs2)nc1` [Example 67, 4-(4,4-dimethyl-5-oxo-3-(6-(3-(thiazol-2-yl)propyl)pyridin-3-yl)-2-thioxoimidazolidin-1-yl)-3-fluoro-2-(trifluoromethyl)benzonitrile]: the IC50 under setting [1] came to 0.27 µM.

As for `N#Cc1ccc(N2C(=O)C3(CCC3)N(c3ccc(CCCc4nccs4)nc3)C2=S)c(F)c1C(F)(F)F` [Example 68, 3-fluoro-4-(8-oxo-5-(6-(3-(thiazol-2-yl)propyl)pyridin-3-yl)-6-thioxo-5,7-diazaspiro[3.4]octan-7-yl)-2-(trifluoromethyl)benzonitrile], under setting [1], the IC50 came out at 0.61 µM.

`COc1cc(N2C(=O)C(C)(C)N(c3ccc(CCCc4nccs4)nc3)C2=S)ccc1C#N` [Example 69, 4-(4,4-dimethyl-5-oxo-3-(6-(3-(thiazol-2-yl)propyl)pyridin-3-yl)-2-thioxoimidazolidin-1-yl)-2-methoxybenzonitrile]: the IC50 under setting [1] amounted to 0.68 µM.

The values above are taken from patent US9216957B2, “Androgen receptor antagonists and uses thereof” (SUZHOU KINTOR PHARMACEUTICALS, INC., priority 2011, dated 2015).
